Among the data in patent publication US6503899B2, “Azepino[4,5-b]pyrano[3,2-e]indoles” (Pharmacia & Upjohn Company, priority 2000, dated 2003) are melting point values, retold here.

Some results are limits rather than exact numbers.

As for `CC1(C)CCc2c(ccc3[nH]c4c(c23)CCNCC4)O1.Cl`, the melting point is > 258 °C (dec.).

As for `Cl.Cn1c2c(c3c4c(ccc31)OCCC4)CCNCC2`, the melting point is > 217 °C (dec.).

Broadly, the melting point is the temperature of the solid-liquid transition.
